One data set has as its target T1, MK2 enzyme (Homo sapiens, UniProt P49137).
T1 construct: MK2 enzyme (active enzyme (peptide 46-end (Millipore))); purchased Millipore
Description: MK2 enzyme activity, IMAP fluorescence polarization assay. It is filed as biochemical. The source says:
In another assay the MK2 kinase activity can be determined by using an IMAP assay (Immobilized Metal Assay for Phosphochemicals—based coupled assay). IMAP is a homogeneous fluorescence polarization (FP) assay based on affinity capture of phosphorylated peptide substrates. IMAP uses fluorescein-labeled peptide substrates that, upon phosphorylation by a protein kinase, bind to so called IMAP nanoparticles, which are derivatized with trivalent metal complexes. […] In such an assay, MK2 phosphorylates a fluorescein-labeled peptide substrate (see example 14).
MK2 enzyme activity is measured using the IMAP (immobilized metal ion affinity-based fluorescence polarization) assay as outlined below.
The enzyme is diluted to 100 U/mL the day before use in KR buffer (10 mM Tris-HCl, 10 mM MgCl2, 0.01% Tween-20, 0.05% NaN3, 2 mM DTT, pH 7.2) and stored overnight at −20° C.
The dilutions in DMSO are then diluted 50-fold in KR-buffer of which 5 μl is used in the assay, leading to a final compound concentration range in the assay from 10 μM to 0.316 nM.
After 60 min incubation at room temperature in the dark the FP signal is read. Fluorescence at 535 nm is measured using parallel and perpendicular filters to determine differences in rotation due to binding of the phosphorylated substrate peptide to the beads. Values are calculated as percentage of the difference in readout (ΔmPi) of the controls with and without ATP. EC50 values are determined by curve fitting of the experimental results using Activity Base.
(In general: Fluorescence polarisation rises when a labelled molecule tumbles more slowly, as on binding a larger partner.)

Data set [1] is described as follows: Solubility determination of MK2 inhibitors (kinetic aqueous solubility, UPLC). It is filed as physicochemical. The conditions noted are these: aqueous buffer (system solution from pION inc.), 22 °C, pH 7.4, aqueous buffer, kinetic from dmso stock. As for the experimental part:
The solubility can be determined using the Automated Kinetic Aqueous Solubility (AKASol) method, which is an HPLC-UV based method. The method is derived from the classical saturated shake-flask solubility method which has been adapted to the 96-well microtitre plate format, allowing the use of DMSO stock solutions. The solubility is determined by measuring the amount of compound in a saturated aqueous solution, quantified by an external calibration curve of the compound dissolved in DMSO. The solubility (mg/L) is measured at pH 7.4, at room temperature and the final concentration of DMSO in the sample solution is 1%.
The samples were prepared from 10 mM DMSO stock solutions. For each compound under investigation, a volume (9 μL) of the DMSO stock solution is transferred from the DMSO stock solution into 891 μL of buffer solution (system solution from pION inc.) in a 96 deep well plate, which equates to approximately 1% DMSO, using the Packard Multiprobe II robot liquid handling system. The pH of the buffer is manually adjusted at pH 7.4 by adding NaOH. This procedure is done in duplicate for each sample. After shaking for 24 h on a vortex mixer (Heidolph, Titramax 101) at 450 rpm and at room temperature (21-23° C.), 300 uL of the incubated sample is transferred from the deep well plate to a filter plate (PVDF, 0.45 um) on a vacuum manifold. To the filtrate (150 uL) 1-propanol (50 uL) is added to suppress precipitation and this solution is then analysed by UPLC. The solubility is determined using the calibration line previously prepared.
Preparation of the Standards and Built up of a Calibration Line
The calibration line is built with different concentrations of the test compound (standards), prepared from the same 10 mM DMSO stock solution. A volume (7 uL) from the same DMSO stock solution was diluted with DMSO (273 uL) leading to a solution with concentration of 0.25 mM. From this solution, three different injection volumes (0.2, 1, 1.8 uL) were injected on UPLC. The respective peak areas are plotted against amount of compound to build up the calibration line. The calibration line is used to determine the amount of dissolved compound in each sample, selecting the injection that gave peak areas closest to the peak area range of the calibration standards.

Setting [2] is: MK2 IMAP assay, 1 μM ATP, 30 min pre-incubation, 2 h room temperature, read-out: pEC50 value (converted).
Where [3] appears, read: pH 7.4, room temperature, about 1% DMSO, 24 h shaking, read-out: solubility.
Setting [4] is: Table 1, compound of Formula (I) with spiro ring, MK2 IMAP assay, read-out: pEC50, Formula (I) (converted).
Setting [5] is: Table 1, compound of Formula (I) with spiro ring, pH 7.4, read-out: Solubility pH 7.4 (mg/L), Formula (I).
Where [6] appears, read: Table 1, comparison compound of Formula (XV) without spiro ring, pH 7.4, read-out: Solubility pH 7.4 (mg/L), Formula (XV).

In brackets after ≈: the same amount, converted by molar mass. Where two headings read alike, the source gives them in different places.

T1 sequence (P49137 46-400 limits assumed): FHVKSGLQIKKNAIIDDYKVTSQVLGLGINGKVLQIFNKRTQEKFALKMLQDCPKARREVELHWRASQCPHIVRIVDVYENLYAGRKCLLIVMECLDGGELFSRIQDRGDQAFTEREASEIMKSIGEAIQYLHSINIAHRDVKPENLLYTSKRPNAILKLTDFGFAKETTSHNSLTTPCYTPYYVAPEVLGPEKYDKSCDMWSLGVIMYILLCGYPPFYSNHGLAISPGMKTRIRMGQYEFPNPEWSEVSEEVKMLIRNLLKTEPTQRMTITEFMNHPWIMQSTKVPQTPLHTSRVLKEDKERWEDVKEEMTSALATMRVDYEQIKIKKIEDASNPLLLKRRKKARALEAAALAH

Consider `CC(=O)NCCN1CCC2(CC1)CNC(=O)c1cc(-c3ccnc(-c4cc5ccccc5o4)n3)[nH]c12` [Example 3—1, N-(2-(2′-(2-(benzofuran-2-yl)pyrimidin-4-yl)-4′-oxo-1′,4′,5′,6′-tetrahydrospiro[piperidine-4,7′-pyrrolo[3,2-c]pyridine]-1-yl)ethyl)acetamide], for which the EC50 at MK2 enzyme (setting [2]) was 3.16 to 31.6 nM. In data set [1] (setting [3]), the solubility at 24 h is not below 50 mg/L.
Regarding `O=C1NCC2(CCNCC2)c2[nH]c(-c3ccnc(-c4ccccc4F)n3)cc21` [16_4 Formula (I)], on MK2 enzyme (setting [4]), the EC50 was 31.6 nM. Moreover, the solubility at 24 h in data set [1] (setting [5]) was 36 mg/L.
Take `CC(=O)c1ccc(-c2nccc(-c3cc4c([nH]3)C3(CCNCC3)CNC4=O)n2)cc1` [1—6, 2′-(2-(4-acetylphenyl)pyrimidin-4-yl)-5′,6′-dihydrospiro[piperidine-4,7′-pyrrolo[3,2-c]pyridin]-4′(1′H)-one]: the EC50 on MK2 enzyme (setting [2]) is 3.16 to 31.6 nM. Also, the solubility at 24 h in data set [1] (setting [3]) was 20 to 50 mg/L (≈ 49.8 to 125 µM).
With `O=C1NCC2(CCNCC2)c2[nH]c(-c3ccnc(-c4cc5ccccc5o4)n3)cc21` [Example 1—1, 2′(2-(benzofuran-2-yl)pyrimidin-4-yl)-5′,6′-dihydrospiro[piperidine-4,7′-pyrrolo[3,2-c]pyridin]-4′(1′H)-one], the EC50 on MK2 enzyme (setting [2]) was 3.16 to 31.6 nM. Besides, the solubility at 24 h in data set [1] (setting [3]) fell in the range of 20 to 50 mg/L (≈ 50.1 to 125 µM).
For `O=C1NCC2(CCNCC2)c2[nH]c(-c3ccnc(-c4cc5ccccc5o4)c3)cc21` [Example 8—1, 2′-(2-(benzofuran-2-yl)pyridin-4-yl)-5′,6′-dihydrospiro[piperidine-4,7′-pyrrolo[3,2-c]pyridin]-4′(1′H)-one] the same measures were 3.16 to 31.6 nM and not below 50 mg/L.
On to `O=C1NCC2(CCNCC2)c2[nH]c(-c3nc(-c4cc5ccccc5o4)ncc3F)cc21` [Example 4—1, 2′-(2-(benzofuran-2-yl)-5-fluoropyrimidin-4-yl)-5′,6′-dihydrospiro[piperidine-4,7′-pyrrolo[3,2-c]pyridin]-4′(1′H)-one], for which the EC50 on MK2 enzyme (setting [2]) was 3.16 to 31.6 nM. The solubility at 24 h in data set [1] (setting [3]) fell in the range of 20 to 50 mg/L (≈ 47.9 to 120 µM).
`CC(C)c1cccc(-c2nccc(-c3cc4c([nH]3)C3(CCNCC3)CNC4=O)n2)c1` [1—14, 2′-(2-(3-isopropylphenyl)pyrimidin-4-yl)-5′,6′-dihydrospiro[piperidine-4,7′-pyrrolo[3,2-c]pyridin]-4′(1′H)-one]: at MK2 enzyme (setting [2]), the EC50 was 31.6 to 316 nM. Besides, the solubility at 24 h in data set [1] (setting [3]) was in the range of 20 to 50 mg/L (≈ 49.8 to 125 µM).
For `O=C1NCC2(CNCCO2)c2[nH]c(-c3ccnc(-c4cc5ccccc5o4)n3)cc21` (stereo not drawn) [7—1, 2′-(2-(benzofuran-2-yl)pyrimidin-4-yl)-5′,6′-dihydrospiro[morpholine-2,7′-pyrrolo[3,2-c]pyridin]-4′(1′H)-one] the same measures were 31.6 to 316 nM and not below 50 mg/L.
For the compound `O=C1NCC2(CCNCC2)c2[nH]c(-c3nc(-c4ccc5c(c4)OCO5)ncc3F)cc21` [4—2, 2′-(2-(benzo[d][1,3]dioxol-5-yl)-5-fluoropyrimidin-4-yl)-5′,6′-dihydrospiro[piperidine-4,7′-pyrrolo[3,2-c]pyridin]-4′(1′H)-one], the EC50 at MK2 enzyme (setting [2]) was 3.16 to 31.6 nM. For the same compound, the solubility at 24 h in data set [1] (setting [3]) fell in the range of 20 to 50 mg/L (≈ 47.5 to 119 µM).
Turning to `O=C1NCC2(CCNCC2)c2[nH]c(-c3ccnc(-c4cnc5ccccc5c4)c3)cc21` [8—2, 2′-(2-(quinolin-3-yl)pyridin-4-yl)-5′,6′-dihydrospiro[piperidine-4,7′-pyrrolo[3,2-c]pyridin]-4′(1′H)-one], the EC50 at MK2 enzyme (setting [2]) is not above 3.16 nM. Also, the solubility at 24 h in data set [1] (setting [3]) is 20 to 50 mg/L (≈ 48.8 to 122 µM).
Turning to `O=C1NCC2(CCNCC2)c2[nH]c(-c3ccnc(-c4cccc(-c5ccccc5)c4)n3)cc21` [1—33, 2′-(2-(biphenyl-3-yl)pyrimidin-4-yl)-5′,6′-dihydrospiro[piperidine-4,7′-pyrrolo[3,2-c]pyridin]-4′(1′H)-one], the EC50 at MK2 enzyme (setting [2]) is 31.6 to 316 nM. Moreover, the solubility at 24 h in data set [1] (setting [3]) was not below 50 mg/L.
For the compound `O=C1NCCc2[nH]c(-c3ccnc(-c4ccc5c(c4)OCO5)n3)cc21` [16_5 Formula (XV)], the EC50 on MK2 enzyme (Table 1, comparison compound of Formula (XV) without spiro ring, MK2 IMAP assay, read-out: pEC50, Formula (XV) (converted)) was 126 nM. In data set [1] (setting [6]), the solubility at 24 h amounted to 5 mg/L.
At MK2 enzyme, `O=C1NCCc2[nH]c(-c3ccnc(-c4cccc(F)c4)n3)cc21` [16_3 Formula (XV)] had an EC50 of 501 nM. In data set [1] (setting [6]), the solubility at 24 h stood at 32 mg/L.
Consider `O=C1NCC2(CCNC2)c2[nH]c(-c3ccnc(-c4cccc(F)c4)n3)cc21` (stereo not drawn) [17_4 Formula (I)], for which the EC50 at MK2 enzyme (Table 2, compound of Formula (I) with amine-containing spiro ring, MK2 IMAP assay, read-out: pEC50, Formula (I) (converted)) was 12.6 nM. Also, the solubility at 24 h in data set [1] (Table 2, compound of Formula (I) with amine-containing spiro ring, pH 7.4, read-out: Solubility pH 7.4 (mg/L), Formula (I)) was 48 mg/L.
`CCN1CCC2(CC1)CNC(=O)c1cc(-c3ccnc(-c4cc5ccccc5o4)n3)[nH]c12` [2—2, 2′-(2-(benzofuran-2-yl)pyrimidin-4-yl)-1-ethyl-5′,6′-dihydrospiro[piperidine-4,7′-pyrrolo[3,2-c]pyridin]-4(1′H)-one]: the EC50 on MK2 enzyme is 31.6 to 316 nM. For the same compound, in data set [1] (setting [3]), the solubility at 24 h is not below 50 mg/L.
For `O=C1NCC2(CCNCC2)c2[nH]c(-c3ccnc(-c4nccs4)n3)cc21` [9—3, 2′-(2-(thiazol-2-yl)pyrimidin-4-yl)-5′,6′-dihydrospiro[piperidine-4,7′-pyrrolo[3,2-c]pyridin]-4′(1′H)-one], the EC50 on MK2 enzyme (setting [2]) was 31.6 to 316 nM. Besides, the solubility at 24 h in data set [1] (setting [3]) is not below 50 mg/L.
For `O=C1NCC2(CCNCC2)c2[nH]c(-c3ccnc(-c4ccc(Cl)c(Cl)c4)n3)cc21` [Example 1—13, 2′-(2-(3,4-dichlorophenyl)pyrimidin-4-yl)-5′,6′-dihydrospiro[piperidine-4,7′-pyrrolo[3,2-c]pyridin]-4′(1′H)-one] the same measures were 3.16 to 31.6 nM and not below 50 mg/L.
For `Cc1ccc(C(=O)Nc2cc(-c3cc4c([nH]3)C3(CCNCC3)CNC4=O)ccn2)cc1C` [12—2, 3,4-dimethyl-N-(4-(4′-oxo-1′,4′,5′,6′-tetrahydrospiro[piperidine-4,7′-pyrrolo[3,2-c]pyridine]-2′-yl)pyridin-2-yl)benzamide], the EC50 on MK2 enzyme (setting [2]) was not above 3.16 nM. Also, the solubility at 24 h in data set [1] (setting [3]) is not below 50 mg/L.
In the case of `O=C1NCC2(CCNCC2)c2[nH]c(-c3ccnc(-c4ccc5c(c4)OCO5)n3)cc21` [16_5 Formula (I)], the “pEC50, Formula (I)” value at MK2 enzyme (Table 1, compound of Formula (I) with spiro ring, MK2 IMAP assay) is 8.4. Besides, the solubility at 24 h in data set [1] (setting [5]) came out at 37 mg/L.
With `O=C1NCC2(CCOCC2)c2[nH]c(-c3ccnc(-c4cnc5ccccc5c4)n3)cc21` [17_2 Formula (XVI)], at MK2 enzyme (Table 2, comparison compound of Formula (XVI), spiro ring without amine, MK2 IMAP assay, read-out: pEC50, Formula (XVI) (converted)), the EC50 was 316 nM. Further, in data set [1] (Table 2, comparison compound of Formula (XVI), spiro ring without amine, pH 7.4, read-out: Solubility pH 7.4 (mg/L), Formula (XVI)), the solubility at 24 h amounted to 3 mg/L.
In the case of `O=C1NCC2(CCNCC2)c2[nH]c(-c3ccnc(-c4cnc5ccccc5c4)c3)cc21` [16_1 Formula (I)], at MK2 enzyme (setting [4]), the EC50 was 1.26 nM. In addition, in data set [1] (setting [5]), the solubility at 24 h was 35 mg/L.

Values taken from patent publication US8772286B2, “MK2 inhibitors” (Merck Sharp & Dohme B.V., priority 2009, dated 2014).
